Source: patent US8859768B2, “Heteroaryls and uses thereof” (Millennium Pharmaceuticals, Inc., priority 2010, dated 2014)

These compounds were tested against T1, Human VPS34 (Homo sapiens, UniProt Q8NEB9) (assay: Human VPS34 Enzyme Assay (Adapta TR-FRET)). Details: compound at 1.111 μM; read-out: Average VPS34 % INH @ 1.111 μM.
T1 construct: GST (N); host or cells: SF9 insect cells (baculovirus)
Type: biochemical
Procedure: VPS34 (accession number GB:BC033004) was cloned into pDEST20-Thombin as N-terminal GST tagged fusion proteins using the Gateway system (Invitrogen, catalog#11804-013). The sequences were verified before recombinant protein expression using the Baculovirus Expression System with Gateway® Technology.
For expression VPS34 was infected at 1MOI in SF9 cells and harvested 72 hours post infection.
For purification, VPS34 is purified by Glutathione Sepharose 4 Fast Flow (GE Healthcare #17-5132-03) followed by HiTrap Q (GE Healthcare #17-1153-01).
Human VPS34 Enzyme Assay Method
100 nL compounds in DMSO are added to wells of a 384 well microtitre plate (Greiner 780076). At room temperature: 5 ul VPS34 reaction buffer (Invitrogen Assay Buffer Q (diluted 1 in 5 with nanopure water) plus 2 mM DTT and 2 mM MnCl2) containing ATP (20 uM, Promega) and 200 uM PI-PS substrate (Invitrogen PV5122) is added followed immediately by 5 ul VPS34 reaction buffer (as above) containing VPS34 (5 nM, Millennium Protein Sciences Group) and the mixture is incubated with shaking at room temperature for 1 hour. Then 5 ul VPS34 stop-detect mix (as per Invitrogen Adapta Assay kit (PV5009) instructions (contains kinase quench buffer, TR-FRET buffer, Adapta Eu anti-ADP antibody and Alexa Fluor 647 ADP tracer)) is added to quench the reaction. The plates are then incubated for 30 minutes at room temperature with shaking and then read on a BMG PheraStar Plus reader.
3) VPS34 is assayed using Adapta™ Universal Kinase Assay Kit (Invitrogen).

T1 sequence (Q8NEB9 whole entry): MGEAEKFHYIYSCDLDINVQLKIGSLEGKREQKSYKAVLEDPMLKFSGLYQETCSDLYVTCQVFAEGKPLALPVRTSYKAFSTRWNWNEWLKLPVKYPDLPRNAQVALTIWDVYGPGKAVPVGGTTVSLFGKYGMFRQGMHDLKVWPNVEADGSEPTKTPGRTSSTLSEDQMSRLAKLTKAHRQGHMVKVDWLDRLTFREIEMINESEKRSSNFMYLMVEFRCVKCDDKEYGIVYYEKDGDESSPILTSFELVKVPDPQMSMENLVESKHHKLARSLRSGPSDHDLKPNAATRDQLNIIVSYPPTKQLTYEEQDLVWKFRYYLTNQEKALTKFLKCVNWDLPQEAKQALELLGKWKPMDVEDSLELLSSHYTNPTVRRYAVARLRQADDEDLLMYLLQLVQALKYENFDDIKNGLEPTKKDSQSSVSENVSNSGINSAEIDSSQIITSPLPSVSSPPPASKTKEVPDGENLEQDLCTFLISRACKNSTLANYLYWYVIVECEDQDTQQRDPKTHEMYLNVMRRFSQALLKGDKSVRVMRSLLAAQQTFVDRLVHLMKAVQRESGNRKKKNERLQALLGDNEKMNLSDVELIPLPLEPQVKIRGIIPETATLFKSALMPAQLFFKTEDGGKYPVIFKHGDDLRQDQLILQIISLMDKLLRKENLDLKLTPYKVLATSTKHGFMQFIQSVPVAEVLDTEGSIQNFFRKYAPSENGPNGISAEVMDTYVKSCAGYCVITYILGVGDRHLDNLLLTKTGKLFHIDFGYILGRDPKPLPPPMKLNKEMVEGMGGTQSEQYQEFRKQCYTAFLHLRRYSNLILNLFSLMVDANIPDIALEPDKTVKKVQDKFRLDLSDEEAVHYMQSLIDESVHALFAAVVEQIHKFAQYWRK

| Compound | inhibition at 1.111 µM |
| --- | --- |
| CC(=O)Nc1cc(-c2cc(C(N)=O)c(-c3ccccc3Cl)o2)ccn1 [Compound I-1, 5-[2-(acetylamino)pyridin-4-yl]-2-(2-chlorophenyl)-3-furamide] | 120% |
| CC(=O)Nc1cc(-c2cc(C(=O)O)c(-c3ccccc3Cl)o2)ccn1 [Compound I-2, 5-[2-(acetylamino)pyridin-4-yl]-2-(2-chlorophenyl)-3-furoic acid] | 124% |
| CC(=O)Nc1cc(-c2nc(C(N)=O)c(-c3ccccc3Cl)o2)c(C)cn1 [Compound I-3, 2-[2-(acetylamino)-5-methylpyridin-4-yl]-5-(2-chlorophenyl)-1,3-oxazole-4-carboxamide] | 112% |
| CC(=O)Nc1cc(-c2nc(-c3nnc[nH]3)c(-c3ccccc3Cl)o2)c(C)cn1 [Compound I-4, N-{4-[5-(2-chlorophenyl)-4-(4H-1,2,4-triazol-3-yl)-1,3-oxazol-2-yl]-5-methylpyridin-2-yl}acetamide] | 118% |
| CC(=O)Nc1cc(-c2nc(-c3ccccc3Cl)c(C(N)=O)o2)c(C)cn1 [Compound I-5, 2-[2-(acetylamino)-5-methylpyridin-4-yl]-4-(2-chlorophenyl)-1,3-oxazole-5-carboxamide] | 108% |
| CC(=O)Nc1cc(-c2nc(C(=O)O)c(-c3ccccc3Cl)o2)c(C)cn1 [Compound I-6, 2-[2-(acetylamino)-5-methylpyridin-4-yl]-5-(2-chlorophenyl)-1,3-oxazole-4-carboxylic acid] | 99% |
| CC(=O)Nc1cc(-c2cc(-c3nnc[nH]3)c(-c3cc(CN(C)C)ccc3Cl)o2)c(C)cn1 [Compound I-7, N-{4-[5-{2-chloro-5-[(dimethylamino)methyl]phenyl}-4-(4H-1,2,4-triazol-3-yl)-2-furyl]-5-methylpyridin-2-yl}acetamide] | 147% |
| CC(=O)Nc1ccc(-c2nc(-c3nnc[nH]3)c(-c3ccccc3Cl)o2)cc1 [Compound I-8, N-{4-[5-(2-chlorophenyl)-4-(4H-1,2,4-triazol-3-yl)-1,3-oxazol-2-yl]phenyl}acetamide] | 7% |
| CC(=O)Nc1cc(-c2nc(C(=O)NCc3ccco3)c(-c3ccccc3Cl)o2)c(C)cn1 [Compound I-9, 2-(2-acetamido-5-methylpyridin-4-yl)-5-(2-chlorophenyl)-N-(2-furylmethyl)-1,3-oxazole-4-carboxamide] | 64% |
| CC(=O)Nc1cc(-c2nc(-c3ncco3)c(-c3ccccc3Cl)o2)c(C)cn1 [Compound I-10, N-{4-[5′-(2-chlorophenyl)-2,4′-bi-1,3-oxazol-2′-yl]-5-methylpyridin-2-yl}acetamide] | 132% |
| CC(=O)Nc1cc(-c2nc(C(=O)NCCC(C)C)c(-c3ccccc3Cl)o2)c(C)cn1 [Compound I-11, 2-(2-acetamido-5-methylpyridin-4-yl)-5-(2-chlorophenyl)-N-(3-methylbutyl)-1,3-oxazole-4-carboxamide] | 22% |
| CC(=O)Nc1cc(-c2cc(C(=O)NCCn3ccnc3)c(-c3ccccc3Cl)o2)c(C)cn1 [Compound I-12, 5-(2-acetamido-5-methylpyridin-4-yl)-2-(2-chlorophenyl)-N-[2-(1H-imidazol-1-yl)ethyl]-3-furamide] | 61% |
| CC(=O)Nc1cc(-c2nc(C(=O)NCCCCO)c(-c3ccccc3Cl)o2)c(C)cn1 [Compound I-13, 2-(2-acetamido-5-methylpyridin-4-yl)-5-(2-chlorophenyl)-N-(4-hydroxybutyl)-1,3-oxazole-4-carboxamide] | 95% |
| CC(=O)Nc1cc(-c2cc(C(=O)NC3CCC3)c(-c3ccccc3Cl)o2)c(C)cn1 [Compound I-14, 5-(2-acetamido-5-methylpyridin-4-yl)-2-(2-chlorophenyl)-N-cyclobutyl-3-furamide] | 88% |
| CC(=O)Nc1cc(-c2cc(C(=O)Nc3nccs3)c(-c3ccccc3Cl)o2)c(C)cn1 [Compound I-15, 5-(2-acetamido-5-methylpyridin-4-yl)-2-(2-chlorophenyl)-N-(1,3-thiazol-2-yl)-3-furamide] | 103% |

Other lines, results leading:

| inhibition at 1.111 µM | Compound |
| --- | --- |
| 51% | CC(=O)Nc1cc(-c2nc(C(=O)NC[C@@H](C)O)c(-c3ccccc3Cl)o2)c(C)cn1 (stereo in doubt) [Compound I-62, 2-(2-acetamido-5-methylpyridin-4-yl)-5-(2-chlorophenyl)-N-(2-hydroxypropyl)-1,3-oxazole-4-carboxamide] |
| 131% | CC(=O)Nc1cc(-c2cc(C(=O)NC[C@@H](C)O)c(-c3ccccc3Cl)o2)c(C)cn1 (stereo in doubt) [Compound I-66, 5-(2-acetamido-5-methylpyridin-4-yl)-2-(2-chlorophenyl)-N-(2-hydroxypropyl)-3-furamide] |
| 131% | CC(=O)Nc1cc(-c2nc(-c3cc(CN4CCCC4)ccc3Cl)c(-c3nnc[nH]3)o2)c(C)cn1 [Compound I-16, N-(4-{4-[2-chloro-5-(pyrrolidin-1-ylmethyl)phenyl]-5-(4H-1,2,4-triazol-3-yl)-1,3-oxazol-2-yl}-5-methylpyridin-2-yl)acetamide] |
| 127% | CC(=O)Nc1cc(-c2cc(-c3nnc[nH]3)c(N3CCCS3(=O)=O)o2)c(C)cn1 [Compound I-17, N-{4-[5-(1,1-dioxidoisothiazolidin-2-yl)-4-(4H-1,2,4-triazol-3-yl)-2-furyl]-5-methylpyridin-2-yl}acetamide] |
| 120% | O=C(Nc1cc(-c2nc(-c3nnc[nH]3)c(-c3ccccc3Cl)o2)ccn1)C1CC1 [Compound I-18, N-{4-[5-(2-chlorophenyl)-4-(4H-1,2,4-triazol-3-yl)-1,3-oxazol-2-yl]pyridin-2-yl}cyclopropanecarboxamide] |
| 48% | CC(=O)Nc1cc(-c2cc(C(=O)Nc3ccccc3)c(-c3ccccc3Cl)o2)c(C)cn1 [Compound I-19, 5-(2-acetamido-5-methylpyridin-4-yl)-2-(2-chlorophenyl)-N-phenyl-3-furamide] |
| 37% | CC(=O)Nc1cc(-c2nc(C(=O)NCc3ccccn3)c(-c3ccccc3Cl)o2)c(C)cn1 [Compound I-20, 2-(2-acetamido-5-methylpyridin-4-yl)-5-(2-chlorophenyl)-N-(pyridin-2-ylmethyl)-1,3-oxazole-4-carboxamide] |
| 25% | CC(=O)Nc1cc(-c2nc(C(=O)NC(C)C)c(-c3ccccc3Cl)o2)c(C)cn1 [Compound I-21, 2-(2-acetamido-5-methylpyridin-4-yl)-5-(2-chlorophenyl)-N-isopropyl-1,3-oxazole-4-carboxamide] |
| 110% | COC(CNC(=O)c1cc(-c2cc(NC(C)=O)ncc2C)oc1-c1ccccc1Cl)OC [Compound I-22, 5-(2-acetamido-5-methylpyridin-4-yl)-2-(2-chlorophenyl)-N-(2,2-dimethoxyethyl)-3-furamide] |
| 139% | CC(=O)Nc1cc(-c2cc(-c3nnc[nH]3)c(-c3ccccc3Cl)o2)c(C)cn1 [Compound I-23, N-{4-[5-(2-chlorophenyl)-4-(4H-1,2,4-triazol-3-yl)-2-furyl]-5-methylpyridin-2-yl}acetamide] |
| 102% | CC(=O)Nc1cc(-c2cc(C(=O)NCCCn3ccnc3)c(-c3ccccc3Cl)o2)c(C)cn1 [Compound I-24, 5-(2-acetamido-5-methylpyridin-4-yl)-2-(2-chlorophenyl)-N-[3-(1H-imidazol-1-yl)propyl]-3-furamide] |
| 41% | CC(=O)Nc1cc(-c2nc(C(=O)NCCOCCO)c(-c3ccccc3Cl)o2)c(C)cn1 [Compound I-25, 2-(2-acetamido-5-methylpyridin-4-yl)-5-(2-chlorophenyl)-N-[2-(2-hydroxyethoxy)ethyl]-1,3-oxazole-4-carboxamide] |
| 129% | CC(=O)Nc1cc(-c2cc(-c3nnc[nH]3)c(N3CCCC(N(C)C)C3)o2)c(C)cn1 (centres unmarked) [Compound I-26, N-(4-{5-[3-(dimethylamino)piperidin-1-yl]-4-(4H-1,2,4-triazol-3-yl)-2-furyl}-5-methylpyridin-2-yl)acetamide] |
| 133% | CC(=O)Nc1cc(-c2cc(C(C)=O)c(-c3ccccc3Cl)o2)c(C)cn1 [Compound I-27, N-{4-[4-acetyl-5-(2-chlorophenyl)-2-furyl]-5-methylpyridin-2-yl}acetamide] |
| 81% | CC(=O)Nc1cc(-c2nc(-c3cc(CN4CCCC4)ccc3Cl)c(C(N)=O)o2)c(C)cn1 [Compound I-28, 2-(2-acetamido-5-methylpyridin-4-yl)-4-[2-chloro-5-(pyrrolidin-1-ylmethyl)phenyl]-1,3-oxazole-5-carboxamide] |
| 116% | COCCNC(=O)c1cc(-c2cc(NC(C)=O)ncc2C)oc1-c1ccccc1Cl [Compound I-29, 5-(2-acetamido-5-methylpyridin-4-yl)-2-(2-chlorophenyl)-N-(2-methoxyethyl)-3-furamide] |
| 114% | CC(=O)Nc1cc(-c2nc(-c3cc[nH]n3)c(-c3ccccc3Cl)o2)c(C)cn1 [Compound I-30, N-{4-[5-(2-chlorophenyl)-4-(1H-pyrazol-3-yl)-1,3-oxazol-2-yl]-5-methylpyridin-2-yl}acetamide] |
